The values that follow are results of earlier work, collected in PMC2074382 (British Journal of Cancer, 1996).

SMILES strings stand for the structures. Counter-ions that a name gives are not always drawn.

For data set [1] the following is noted: animals, intravenous route; cited from earlier work.
Another data set relates to bone marrow cultures. The note with it: ref Emerson et al., 1995; cited from earlier work.
For the next data set, the system named is mice. The note with it: by rough estimate; cited from earlier work.

With `CC[C@@]1(O)C(=O)OCc2c1cc1n(c2=O)Cc2c-1nc1cc3c(cc1c2CN1CCN(C)CC1)OCCO3` [GI147211, [7 - (methylpiperazinomethylene) - 10,11 - ethylene-dioxy-20(S)] camptothecin dihydrochloride], the “main and dose-limiting toxicity” value in data set [1] is given as “myelosuppression”. Also, in the data set with bone marrow cultures, the “myelotoxicity compared with topotecan” value is on record as “more myelotoxic than topotecan”. Moreover, the “murine LD10 compared with topotecan” value in the data set on mice is “equivalent to topotecan”.
